What was measured:
[1] = system: Prevotella loescheii PK1295/Streptococcus oralis C104; experiment: reversal of coaggregation, visual score; type: cell-based; parameters: key: *: Coaggregations were reversed by both D-galactose and D-tagatose
Experimental: (§1) Fifteen oral isolates, including both early colonizers (Streptococcus and Actinomyces) and late colonizers (Fusobacterium, Porphyromonas, Prevotella, Veillonella, Capnocytophaga, and Actinobacillus), were tested for their ability to coaggregate with each other, followed by testing for the reversal of coaggregation by the addition of D-tagatose. Bacterial strains used were of human gingival crevice origin. The coaggregation was examined visually by a scoring system ranging from 0 for no visible coaggregation to 4 for maximum coaggregation [Cisar J. O., Kolenbrander P. E., and McIntire F. C., “Specificity of coaggregation reactions between human oral streptococci and strains of Actinomyces viscosus or Actinomyces naeslundii”, Infect. Immun., 24:742–752. 1979]. D-Tagatose, at a concentration of less than 750 mM, completely reversed the coaggregation of 17 (60%) of 28 strong coaggregating pairs (with a coaggregation score of 2 or higher) tested. […] These D-tagatose sensitive coaggregations were D-galactose reversible as well.
(§2) Pairs of various species of oral bacteria were tested for coaggregation, and for reversal of coaggregation when D-tagatose or D-galactose was administered.

[2] = system: Fusobacterium nucleatum PK1594/Capnocytophaga ochracea 25; experiment: reversal of coaggregation, visual score; type: cell-based; parameters: key: *: Coaggregations were reversed by both D-galactose and D-tagatose; settings: pair PK1594/Capno 25; coaggregation score 1 without sugar
Experimental: as §1, §2

[3] = system: Prevotella loescheii PK1295/Streptococcus oralis SO34; experiment: reversal of coaggregation, visual score; type: cell-based; parameters: key: *: Coaggregations were reversed by both D-galactose and D-tagatose
Experimental: as §1, §2

[4] = system: Actinomyces naeslundii PK29/Streptococcus morbillorum PK509; experiment: reversal of coaggregation, visual score; type: cell-based; parameters: key to reversal of coaggregation: *: Coaggregations were reversed by both D-galactose and D-tagatose; settings: for coaggregation score: pair PK29/PK509, water score 2, scale 0 no visible to 4 maximum coaggregation; for reversal of coaggregation: pair PK509/PK29, coaggregation score 2 without sugar
Experimental: as §1, §2

[5] = system: oral bacteria; settings: known from literature; cited from earlier work
[6] = system: biofilm on the heart valve; experiment: prophylaxis against prosthetic valve endocarditis (Example 5); type: in vivo, human; settings: one patient; 10 grams with each of three daily meals, three days before until one week after surgery
Excerpt: An adult patient requires removal of their infected mitral valve and its replacement with a prosthetic valve. One of the principal hazards of such an operation is that the valve region of the heart will become infected, frequently with streptococci that form a biofilm protecting internal microorganisms from antibiotics, and also permitting such organisms to develop increasing resistance. In order to prevent the buildup of a biofilm infection, the physician places their patient on tagatose treatment for three days prior to the surgery. On each such day, the patient consumes 10 grams of D-tagatose with each of their three daily meals. The resulting D-tagatose blood level is sufficient to preclude the formation of a biofilm on the heart valve. The treatment is continued until one week after the operation and the patient is well on the road to recovery.

[7] = system: dental plaque; experiment: D-tagatose in foods to control dental plaque (Example 3); type: in vivo, human; settings: third monthly check-up
Excerpt: Forty subjects, half male, half female, ranging from 4 to 80 years in age, daily consume foodstuffs, such as cakes, cookies, pies, hard candy, hot and cold cereals, cold fruit drinks, iced tea, coffee and tea, that are sweetened with conventional sweeteners including sucrose and high fructose corn syrup (HFCS). After several monthly check-ups, these subjects are found to have high dental plaque indices, and many of them are diagnosed with plaque-related oral diseases. At this point, the test foodstuffs are switched such that D-tagatose is used as a one-for-one replacement for the table sugar and HFCS previously used. No other changes are made in the test regimen.

[8] = system: staphylococcus lesion of the leg; experiment: D-tagatose enhancing antibiotic activity (Example 4); type: in vivo, human; settings: one patient; five grams with each of three meals daily plus oral penicillin; in the course of a week
Excerpt: A patient with a staphylococcus lesion of the leg is placed on oral penicillin by their physician. […] The formation of plaque in the infected region protects the interior microorganisms from the antibiotic coursing through the bloodstream, and the plaque organisms develop increased resistance. The physician prescribes five grams of D-tagatose be taken with each of three meals daily, along with continued taking of the penicillin.

[9] = system: total bacteria and coliform; experiment: sterilization of food-handling machinery, wash before Clean-In-Place (Example 7); settings: 200 mM in sterile water run through equipment immediately prior to CIP
Experimental: A cheese-making plant processes raw milk into cheese. The equipment includes many tubes, tubules, pipes and other surfaces that come in direct contact with the milk. Between runs, standard “Clean-In-Place” (CIP) operations are performed in which acid and oxidants are coursed through the equipment to contact all surfaces and are then washed out with sterile water. However, the formation of microbial plaques protects the microorganisms in the interiors of the plaques, and some survive the CIP. To overcome this problem, an initial step is added to the CIP whereby a stream of 200 mM D-tagatose in sterile water is run through the equipment, contacting all surfaces, immediately prior to instituting the CIP. […] Accordingly, the D-tagatose wash is made part of the CIP.

[10] = prevention of stroke (Example 6); type: in vivo, human; settings: one patient with high blood pressure; 5 grams with each of three daily meals
Excerpt: A patient has gradually developed high blood pressure over the years. Their doctor places them on a blood pressure medicine when their pressure reaches 135/90 mm Hg. Despite gradual increases in dosage of the medicine, and trials of new medicines, over time their blood pressure continues to increase until reaching 145/100 mm Hg. At this point the physician fears the possibility of a stroke.

[11] = pair Cl04/PK1295, coaggregation score 4 without sugar
[12] = pair SO34/PK1295, coaggregation score 4 without sugar

Row | Structure (SMILES) | coaggregation score [1, 11] | coaggregation score ([1]; pair PK1295/C104, sugar 143 mM, water score 4, scale 0 no visible to 4 maximum coaggregation) | coaggregation score without sugar [2] | coaggregation score ([3]; pair PK1295/SO34, sugar 143 mM, water score 4, scale 0 no visible to 4 maximum coaggregation) | coaggregation score [3, 12] | coaggregation score ([4]; sugar 143 mM) | reversal of coaggregation [4] | reversal of coaggregations that would otherwise form dental plaque [5] | infection after prosthetic valve replacement [6] | plaque indices ([7]; forty subjects, D-tagatose one-for-one replacement for table sugar and HFCS in foodstuffs) | plaque-related oral diseases ([7]; subjects who formerly exhibited disease) | coaggregation score ([1]; pair PK1295/C104, sugar 750 mM, water score 4, scale 0 no visible to 4 maximum coaggregation) | coaggregation score ([3]; pair PK1295/SO34, sugar 750 mM, water score 4, scale 0 no visible to 4 maximum coaggregation) | coaggregation score ([4]; sugar 200 mM) | outcome of staphylococcus lesion [8] | total bacteria and coliform counts in cheese-making equipment [9] | risk of stroke [10]
1 | O=C[C@H](O)[C@@H](O)[C@@H](O)[C@H](O)CO [D-Galactose] | 4* | 1 | 1* | 0 | 4* | 0 | 2* | reverse the coaggregations of oral bacteria |  |  |  |  |  |  |  |  | 
2 | O=C(CO)[C@@H](O)[C@@H](O)[C@H](O)CO [D-Tagatose] | 4* |  | 1* |  | 4* |  | 2* |  | Infection has been avoided | significantly lowered | complete or nearly complete recovery | 2 | 1 | 0 | the lesion disappears | reducing the total bacteria and the coliform counts to acceptable regulatory levels | significantly reduced

From patent US7189351B2, “D-tagatose as an anti-biofilm agent” (priority 2001, dated 2007)
